Results taken from paper PMC10570359, “Dietary supplementation of cystinotic mice by lysine inhibits the megalin pathway and decreases kidney cystine content” (Scientific Reports, 2023).

Columns and labels:
[1] = tested on: kidney proximal tubular cells; assay: In vivo endocytic tracing with TexasRed-ovalbumin in WT mice; conditions: 3 weeks diet
Method: We also examined whether apical endocytic trafficking of megalin cargo could be blocked under 5x-L-lysine, using apical endocytic tracing in WT mice with the fluorescent megalin ligand, TexasRed-ovalbumin (TxR-OVA). Normally, mice feed at night hours. To optimize PT exposure to ingested lysine during endocytic tracing performed at day hours, mice were first reprogrammed by adaptation to inverted […]. […] This implied that the extent of competition in cortical PTCs could be greatly underestimated by measured LMWPuria. At higher magnification, contacts of TxR-OVA labeled apical endosomes with lysosomes in cortical PTCs were still visible under 5X-L-Lysine, arguing against a major impairment of apical endosomal trafficking (Fig. 4b). […]
(§1) For in vivo endocytic tracing in PTCs, Texas Red-ovalbumin (300 µg, Invitrogen #O23021) was injected intravenously at 20 min before sacrifice. […] Proliferative events in kidney cortex were quantified as described. […] Histological PAS staining and quantification of the frequency of swan-neck lesions were performed as described. Sirius Red staining of paraffine sections and morphometry in total sagittal kidney sections after conversion to red fluorescence were performed as described[53],[54].

[2] = Tolerance of prolonged 5x-dAA diets in mice; conditions: ad libitum 5x-supplemented solid diet, approx. 45 mmoles/kg/day
From the text: Ctns knockout mice (C57BL/6 background) were kindly provided by Dr. Corinne Antignac[18]. […] The same increase was set for L- (and D-) lysine.

[3] = tested on: kidney tubular reabsorption of LMWPs; set-up: method as in PMID 98829; conditions: humans, intravenous injection; cited from earlier work
Ctns KO mice kidneys = assay: Kidney histology (swan-neck lesions, Sirius-red fibrosis) in Ctns KO mice; format: in vivo; conditions: primary prevention, diet from 2-to-6 months-of-age, control diet ~ 80%
From the text: By histological survey, no obvious change was evidenced after HE or PAS staining (Supplemental Fig. 4a). We thus scored the abundance of characteristic swan-neck lesions at the glomerulo-tubular junction, a quantitative marker disease, and again found no detectable protection (Supplemental Fig. 4b). However, at 6-months-of-age as baseline, most junctions were already altered (~ 80%), leaving little scope for a potential benefit. […] To look for fibrosis, histological sections at 8 months-of-age were stained with Sirius-red; its signal was automatically divided into three intensity levels over the entire kidney cortex. This quantification disclosed no detectable decrease of Sirius-red staining, thus fibrosis, upon dAAs at this interval (Supplemental Fig. 4c,d).
as §1, with “described[53],[54]. […]” for “described[53],[54].”
Fo r the significance of swan-necks, please see [26]. Fo r more information on swan-neck quantification, see [22]. […]

cystinotic rat model = assay: 5x-L-lysine diet in cystinotic rat model (preliminary, not shown); format: in vivo; conditions: preliminary results (not shown)
megalin and cubilin = tested on: megalin and cubilin; set-up: method as in PMID 16508656; conditions: rats, cited from earlier work
megalin pathway = conditions: mouse, in vivo
Method: After 24-h adaptation in metabolic cages, urine was collected during the following 24 h in presence of 0.1% sodium azide and 1x-protease inhibitors (Thermo Scientific). When in metabolic cages, mice had free access to tap water and food. Blood was collected 2 days before starting the treatments and entry into metabolic cages (baseline) and at the sacrifice to obtain serum. Body weight was recorded before entering the metabolic cages. Urine and serum analyses were performed by the veterinary laboratory Appialab Srl (Rome, Italy). Urinary levels of CC16 were measured by the Mouse Clara Cell Protein 16 kit 96 T #EKU03200 (Biomatik) according to manufacturer’s instructions. Serum levels of cystatin-C were measured by the Mouse/Rat Cystatin C Quantitative ELISA #MSCTC0 (R&D Systems). […] Creatinine clearance was normalized by mouse body weight.

Row | SMILES | distribution of endocytic load from S1/S2 (cortex) to S3 segment (outer medulla) ([1]; inverted light cycle) | TxR-OVA fluorescence intensity in cortical PTCs ([1]; inverted light cycle (reprogrammed feeding hours), 20 min after injection) | tolerance of prolonged diet [2] | impact on glomerular filtration [3] | inhibition of kidney tubular reabsorption of LMWPs [3] | swan-neck frequency at 6 months-of-age (Ctns KO mice kidneys) | Fanconi syndrome (cystinotic rat model) | kidney cystine accumulation (cystinotic rat model) | tolerance (megalin and cubilin; 1-day gavage, 80 mmoles/kg) | LMWPuria (megalin and cubilin; gavage for one day) | localization of megalin and cubilin in PTCs (megalin and cubilin; gavage for one day, from base of brush border to brush border itself) | Urine microalbumin/creatinine (megalin pathway) | increase of microalbuminuria vs control diet (megalin pathway)
1 | NCCCC[C@H](N)C(=O)O [5x-L-lysine, L-lysine] | strong redistribution | greatly decreased | well tolerated | no impact | dose-dependent (up to complete) inhibition | ~ 20% | serious worsening | considerably decreased | well tolerated | prominent LMWPuria | striking relocation |  | 
2 | N=C(N)NCCC[C@H](N)C(=O)O [5x-L-arginine, L-arginine] |  |  |  |  |  |  |  |  |  |  |  | 0.2 ± 0.0 mg/g | no detectable increase
